Measurements from US20240018158A1, “BRM TARGETING COMPOUNDS AND ASSOCIATED METHODS OF USE” (Prelude Therapeutics Incorporated, priority 2020, published 2024).
pIC50: −log10 of the molar value.

Columns and labels:
[1] = molecular target: bromodomain of SMARCA2 protein (Homo sapiens (Human), UniProt P40337+P51531); assay: SMARCA2 bromodomain ternary binding TR-FRET assay (with VCB); conditions: with saturating VCB (5 μM); read-out: IC50 (SM 2_T) ternary binding potency in SMARCA2 FRET assay
Source text: Recombinant bromodomain of SMARCA2 protein was purchased from Active Motif (Catalog #: 31449). VHL/ElonginB/ElonginC (VCB)N-terminal his6-tagged VHL (“his6” disclosed as SEQ ID NO: 4) (uniprot accession number P40337; M54-D213; […] […] […] (SEQ ID NO: 1)), Elongin B (Q15370; M1-K104; […] […] (SEQ ID NO: 2)), Elongin C (Q15369; M17-C112; […] […] (SEQ ID NO: 3)) complex were co-expressed and the complex was purified by Ni-affinity, TEV protease was then used to remove his6-tagged (SEQ ID NO: 4), and the complex was further purified by size-exclusion chromatography before use.
The inhibitory activity of compounds was evaluated in vitro using TR-FRET assay with white 384-well low volume microplate (PerkinElmer ProxiPlate Plus), in which the compound competes the same binding site with the ligand, and thus lead to dose-dependent TR-FRET signal reduction. The cooperativity of the compounds for ternary complex formation with E3 ligase was evaluated in the absence or presence of saturating concentrations of VCB. Testing compounds were dissolved in DMSO at […] and tested in 9-dose IC50. The assay mixture was prepared by mixing SMARCA2 (10 nM final), biotinylated probe (25 nM final), and assay buffer or VCB (5 μM) in 1×AlphaLISA Epigenetics Buffer (PerkinElmer AL008F) with 1 mM TCEP. The compounds in DMSO were added to each well in 3-fold serial dilution by dispenser (TECAN D300E) and incubate for 20 minutes at room temperature before addition of detection reagents, Lance Eu W1024 anti-6×His (0.6 nM final, PerkinElmer AD0110) and Streptavidin Surelight APC (6 nM final, PerkinElmer CR130-100). The plate was then sealed and further incubated at 4° C. overnight in dark, and then was read by Envision multimode plate reader (PerkinElmer, 2102-0010). The ratio of florescence signal at 665/620 was used in data analysis. Percentage inhibition was calculated by % inhibition=100×(FDMSO-F)/(FDMSO-FPC), in which FDMSO is DMSO control, and FPC is positive control. IC50 values were determined from dose response curve by fitting the percent inhibition against compound concentration using GraphPad Prism software.

SMARCA4 = SMARCA4 (Homo sapiens (Human), UniProt P51532); assay: In Cell Western SMARCA4 degradation in NCIH520 cells; assay type: cell-based; conditions: for DC50: H520 cells, overnight, read-out: DC50 (SM4_H520) SMARCA4 degradation potency; for Dmax: NCI-H520, overnight, read-out: Dmax % (SM4_H520) maximum SMARCA4 degradation within the concentrations tested
Sequence of SMARCA4 (P51532 whole entry): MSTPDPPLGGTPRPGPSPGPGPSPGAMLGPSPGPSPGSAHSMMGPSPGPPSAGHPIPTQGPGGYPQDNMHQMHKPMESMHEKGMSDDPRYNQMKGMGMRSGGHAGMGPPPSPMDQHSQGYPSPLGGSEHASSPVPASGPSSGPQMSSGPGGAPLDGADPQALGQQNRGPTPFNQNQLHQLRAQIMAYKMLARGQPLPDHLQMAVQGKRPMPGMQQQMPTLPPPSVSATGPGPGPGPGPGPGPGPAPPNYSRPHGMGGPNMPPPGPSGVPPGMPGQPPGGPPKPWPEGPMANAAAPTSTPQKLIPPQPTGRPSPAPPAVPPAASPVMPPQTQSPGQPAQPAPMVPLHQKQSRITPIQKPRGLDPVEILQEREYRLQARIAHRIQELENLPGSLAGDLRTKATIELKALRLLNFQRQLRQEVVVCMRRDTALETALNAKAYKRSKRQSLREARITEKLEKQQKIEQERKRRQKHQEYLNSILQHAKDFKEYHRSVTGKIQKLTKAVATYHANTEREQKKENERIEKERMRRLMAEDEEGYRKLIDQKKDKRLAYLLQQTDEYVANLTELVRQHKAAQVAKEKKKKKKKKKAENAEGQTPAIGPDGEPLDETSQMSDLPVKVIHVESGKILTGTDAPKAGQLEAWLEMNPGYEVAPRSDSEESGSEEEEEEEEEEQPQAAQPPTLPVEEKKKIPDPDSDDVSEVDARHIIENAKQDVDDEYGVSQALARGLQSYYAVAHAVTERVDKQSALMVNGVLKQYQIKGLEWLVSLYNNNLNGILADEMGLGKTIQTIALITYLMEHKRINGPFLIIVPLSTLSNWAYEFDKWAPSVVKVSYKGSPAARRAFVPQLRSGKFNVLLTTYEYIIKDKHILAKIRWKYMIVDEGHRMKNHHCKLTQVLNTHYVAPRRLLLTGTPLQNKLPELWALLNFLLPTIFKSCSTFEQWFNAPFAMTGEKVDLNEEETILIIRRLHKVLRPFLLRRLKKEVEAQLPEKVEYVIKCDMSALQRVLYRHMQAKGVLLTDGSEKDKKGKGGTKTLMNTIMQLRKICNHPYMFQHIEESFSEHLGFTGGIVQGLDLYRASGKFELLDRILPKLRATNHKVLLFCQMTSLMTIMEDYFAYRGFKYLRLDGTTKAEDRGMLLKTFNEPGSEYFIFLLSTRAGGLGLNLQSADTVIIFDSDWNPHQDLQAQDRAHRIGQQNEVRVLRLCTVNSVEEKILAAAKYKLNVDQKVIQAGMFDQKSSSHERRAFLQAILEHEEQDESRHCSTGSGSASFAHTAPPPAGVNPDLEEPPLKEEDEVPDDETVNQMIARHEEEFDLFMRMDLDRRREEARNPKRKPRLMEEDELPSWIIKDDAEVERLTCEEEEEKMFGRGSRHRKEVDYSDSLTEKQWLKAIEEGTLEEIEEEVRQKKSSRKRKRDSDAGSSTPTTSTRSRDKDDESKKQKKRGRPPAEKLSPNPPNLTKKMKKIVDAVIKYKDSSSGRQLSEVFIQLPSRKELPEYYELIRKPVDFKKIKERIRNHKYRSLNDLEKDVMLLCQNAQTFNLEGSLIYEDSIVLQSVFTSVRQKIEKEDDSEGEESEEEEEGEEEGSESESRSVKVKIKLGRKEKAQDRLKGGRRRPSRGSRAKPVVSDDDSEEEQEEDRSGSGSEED
Experimental: (§1) Compound titration and cell culture: Compounds were dissolved in DMSO to make 10 mM stock and 3-fold series dilutions were further conducted keeping the highest concentration 10 μM. NCIH1693 and NCIH520 cells were maintained in PRMI 1640 medium (Corning Cellgro, Catalog #:10-040-CV) supplemented with 10% v/v FBS (GE Healthcare, Catalog #: SH30910.03) by splitting 1:3 twice a week.
(§2) To determine SMACRA2 and SMARCA4 protein degradation DC50 values in NCIH1693 and NCIH520 cells by In Cell Western (ICW) analysis. Cells were trypsinized and 30 thousand cells/well were seeded into 384-well plates and were allowed to grow for 5 hours at 37° C. Eight-point, 3-fold serial dilutions of compounds from 10 mM stocks were added to the cells (using digital Dispenser D300-Tecan, keeping highest concentration 10 μM and normalizing with DMSO at the highest dispensed volume). Plates were incubated at 37° C. for overnight (maximum 18 hours). Cells incubated with DMSO was used as a vehicle control.
(§3) To perform In Cell Western, medium was removed from all the wells leaving cells attached to the surface. After removing the medium, cells were fixed within the plates with 40 μL of 4% formaldehyde by incubating at room temperature for 30 minutes, and then permeabilized with wash buffer (1×PBS with 0.1% Triton X-100) by washing the plate 5 times with 50 μL/well. Before labeling with primary antibodies, cells were blocked with 30 μL/well of blocking buffer (Licor Odyssey blocking buffer PBS #927-40000) for 30 minutes at room temperature. To measure SMARCA2 or SMARCA4 proteins, cells were labeled with 20 μL/well of anti SMARCA2 or SMACRA4 antibodies (Cell Signaling BRM #11966S 1:1000, Cell Signaling BRG #49360S 1:1000) diluted in Li-Cor Odyssey blocking buffer-PBS #927-40000, followed by overnight incubation at 4° C.
(§4) The next day, plates were washed 5×5 minutes with 50 μL/well of washing buffer to remove all the excess primary antibody and then 20 μL from a mixture of secondary antibody and fluorescent DNA specific dye (Goat anti rabbit 1:500 IRDye-800CW #92632211, and DRAQ5™ 1:2000-#ab108410) was added to each well. Plates were incubated for 1 hour at room temperature with gentle rocking. Cells were washed 5 times with 50 μL/well wash buffer, followed by one last wash with DI water, followed by 10 mins drying at 37° C. oven before scanning. Plates were scanned using Li-Cor Odyssey CLx imaging system to acquire integrated intensities at 700 nm and 800 nm. SMARCA signals were normalized to total cell count and then these normalized values were used to calculate the percent degradation relative to DMSO control and maximum inhibition. DC50s were calculated by using the GraphPad Prism4 program based on sigmoidal dose response equation ([Inhibitor] vs. normalized response−Variable slope).

NCIH1693 cells = assay: Cell proliferation assay (ATPlite) in NCIH1693 cells; assay type: cell-based; conditions: Homo sapiens, NCI-H1693, 96 h, day 4, read-out: IC50 (PRO_H1693) antiproliferation potency
Experimental: One thousand NCIH1693 or NCIH1703 cells per well were seeded in 96 well plate and incubated at 37° C. for 5 hrs. A series of three-fold dilution of compounds from 10 mM stock concentration were added to the cells by using digital Dispenser D300-Tecan, keeping highest concentration 10 μM and normalizing with DMSO at the highest dispensed volume). Cells incubated with DMSO was used as a vehicle control. After compound treatment plates were incubated at 37° C. for 4 days and cell viability was measured by measuring ATP content from the cell lysate using ATPlite Luminescence assay system (PerkinElmer Cat. no #6016941). Percentage of viable cells, relative to DMSO vehicle control and maximum inhibition, was calculated and plotted in Graphpad Prism ([Inhibitor] vs. normalized response−Variable slope) to determine cell proliferation IC50 values on day 4.

SMARCA2 = SMARCA2 (Homo sapiens (Human), UniProt P51531); assay: In Cell Western SMARCA2 degradation in NCIH520 cells; assay type: cell-based; conditions: for DC50: H520 cells, overnight, read-out: DC50 (SM2_H520) SMARCA2 degradation potency; for Dmax: NCI-H520, overnight, read-out: Dmax % (SM2_H520) maximum SMARCA2 degradation within the concentrations tested
Sequence of SMARCA2 (P51531 whole entry): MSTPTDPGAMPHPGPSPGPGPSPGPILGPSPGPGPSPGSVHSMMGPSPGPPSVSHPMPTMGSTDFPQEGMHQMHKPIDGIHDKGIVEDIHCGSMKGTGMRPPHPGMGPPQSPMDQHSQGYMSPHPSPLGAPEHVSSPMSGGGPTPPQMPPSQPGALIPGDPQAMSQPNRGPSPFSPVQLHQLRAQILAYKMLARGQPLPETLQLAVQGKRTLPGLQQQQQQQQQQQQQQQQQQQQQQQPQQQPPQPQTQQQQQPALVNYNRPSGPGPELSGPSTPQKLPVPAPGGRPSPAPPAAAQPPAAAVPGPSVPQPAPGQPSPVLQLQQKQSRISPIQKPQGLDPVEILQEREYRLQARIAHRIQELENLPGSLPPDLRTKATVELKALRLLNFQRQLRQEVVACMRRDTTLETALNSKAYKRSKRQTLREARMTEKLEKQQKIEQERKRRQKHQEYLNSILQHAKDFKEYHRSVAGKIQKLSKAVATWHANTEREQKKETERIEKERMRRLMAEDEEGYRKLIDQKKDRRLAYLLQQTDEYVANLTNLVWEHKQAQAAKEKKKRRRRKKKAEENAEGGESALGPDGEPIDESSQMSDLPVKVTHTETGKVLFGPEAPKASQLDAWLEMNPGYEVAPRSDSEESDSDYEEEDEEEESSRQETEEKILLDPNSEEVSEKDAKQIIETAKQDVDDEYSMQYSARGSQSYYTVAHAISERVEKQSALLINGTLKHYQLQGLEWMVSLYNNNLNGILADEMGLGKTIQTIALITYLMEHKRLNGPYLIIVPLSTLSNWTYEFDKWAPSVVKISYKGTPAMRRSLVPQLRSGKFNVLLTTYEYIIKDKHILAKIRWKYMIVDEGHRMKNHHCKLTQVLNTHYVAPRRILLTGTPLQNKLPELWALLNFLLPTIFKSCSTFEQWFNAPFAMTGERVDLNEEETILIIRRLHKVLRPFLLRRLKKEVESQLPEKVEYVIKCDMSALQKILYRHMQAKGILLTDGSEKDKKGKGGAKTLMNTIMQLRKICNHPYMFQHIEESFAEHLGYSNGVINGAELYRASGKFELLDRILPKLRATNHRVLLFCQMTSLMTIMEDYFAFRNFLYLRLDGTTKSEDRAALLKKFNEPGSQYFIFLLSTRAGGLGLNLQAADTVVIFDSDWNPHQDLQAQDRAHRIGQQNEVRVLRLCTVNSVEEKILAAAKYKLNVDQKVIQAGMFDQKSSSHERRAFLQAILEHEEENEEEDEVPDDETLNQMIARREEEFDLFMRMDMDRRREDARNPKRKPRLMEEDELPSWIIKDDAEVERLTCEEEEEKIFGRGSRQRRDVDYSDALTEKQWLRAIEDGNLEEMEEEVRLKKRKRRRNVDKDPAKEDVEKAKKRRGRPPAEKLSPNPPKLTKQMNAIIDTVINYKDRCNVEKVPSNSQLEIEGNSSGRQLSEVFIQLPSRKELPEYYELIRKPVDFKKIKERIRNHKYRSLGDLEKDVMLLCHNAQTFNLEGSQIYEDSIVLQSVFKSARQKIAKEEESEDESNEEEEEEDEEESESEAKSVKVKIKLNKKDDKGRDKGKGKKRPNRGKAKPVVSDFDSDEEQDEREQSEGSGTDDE
Experimental: as §1, §2, §3, §4

[2] = tested on: SMARCA4 mutated cancer cells; conditions: Vangamudi et al. Cancer Res 2015; cited from earlier work

Sequence of bromodomain of SMARCA2 protein (P51531 whole entry, looked up): as the sequence (P51531 whole entry) above
Sequence of bromodomain of SMARCA2 protein (P40337 whole entry, looked up): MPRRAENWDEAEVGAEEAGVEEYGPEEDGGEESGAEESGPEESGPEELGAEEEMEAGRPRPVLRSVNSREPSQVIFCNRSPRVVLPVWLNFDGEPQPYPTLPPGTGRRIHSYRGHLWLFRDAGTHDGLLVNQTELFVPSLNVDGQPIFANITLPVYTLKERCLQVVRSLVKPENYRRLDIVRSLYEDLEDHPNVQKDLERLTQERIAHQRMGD
Sequence of bromodomain of SMARCA2 protein (Q15370 whole entry partner, looked up): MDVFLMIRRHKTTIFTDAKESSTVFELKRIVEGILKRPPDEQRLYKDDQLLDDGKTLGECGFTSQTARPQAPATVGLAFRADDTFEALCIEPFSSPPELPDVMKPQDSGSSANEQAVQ
Sequence of bromodomain of SMARCA2 protein (Q15369 whole entry partner, looked up): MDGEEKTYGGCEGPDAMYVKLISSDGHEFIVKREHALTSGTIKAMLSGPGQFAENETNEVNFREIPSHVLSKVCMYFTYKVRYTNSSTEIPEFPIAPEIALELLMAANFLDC

SMILES | pIC50 [1] | DC50 (SMARCA4) [nM] | Dmax (SMARCA4) [%] | pIC50 (NCIH1693 cells) | DC50 (SMARCA2) [nM] | Dmax (SMARCA2) [%] | effects on cell proliferation inhibition [2]
Cc1ncsc1-c1ccc([C@H](C)NC(=O)[C@@H]2C[C@@H](O)CN2C(=O)[C@@H](NC(=O)CN2CCN3c4cc(-c5ccccc5O)nnc4NCC3C2)C(C)(C)C)cc1 (single isomer, unassigned) [Example 1a] | 6.00 to 7.00 | 100 to 1000 | > 75 | 6.00 to 7.00 | 100 to 1000 | > 75 | –
Cc1ncsc1-c1ccc([C@H](C)NC(=O)[C@@H]2C[C@@H](O)CN2C(=O)C(c2cc(OCCN3CCC(CN4CCN5c6cc(-c7ccccc7O)nnc6NCC5C4)CC3)no2)C(C)C)cc1 (stereo in doubt) [Example 5, (2S,4R)-4-hydroxy-1-((2S)-2-(3-(2-(4-((2-(2-hydroxyphenyl)-5,6,6a,7,9,10-hexahydro-8H-pyrazino[1′,2′:4,5]pyrazino[2,3-c]pyridazin-8-yl)methyl)piperidin-1-yl)ethoxy)isoxazol-5-yl)-3-methylbutanoyl)-N-((S)-1-(4-(4-methylthiazol-5-yl)phenyl)ethyl)pyrrolidine-2-carboxamide] | > 7.00 | < 100 | > 75 | – | < 100 | > 75 | –
Cc1ncsc1-c1ccc([C@H](C)NC(=O)[C@@H]2C[C@@H](O)CN2C(=O)[C@@H](NC(=O)CN2CCC(CN3CCN4c5cc(-c6ccccc6O)nnc5NCC4C3)CC2)C(C)(C)C)cc1 (stereo partly drawn) [Example 3, (2S,4R)-4-hydroxy-1-((2S)-2-(2-(4-((2-(2-hydroxyphenyl)-5,6,6a,7,9,10-hexahydro-8H-pyrazino[1′,2′:4,5]pyrazino[2,3-c]pyridazin-8-yl)methyl)piperidin-1-yl)acetamido)-3,3-dimethylbutanoyl)-N-((S)-1-(4-(4-methylthiazol-5-yl)phenyl)ethyl)pyrrolidine-2-carboxamide] | > 7.00 | 100 to 1000 | > 75 | – | < 100 | > 75 | –
Cc1ncsc1-c1ccc([C@H](C)NC(=O)[C@@H]2C[C@@H](O)CN2C(=O)[C@@H](c2cc(OCCN3CCN4c5cc(-c6ccccc6O)nnc5NCC4C3)no2)C(C)C)cc1 (stereo partly drawn) [Example 4, (2S,4R)-4-hydroxy-1-((2R)-2-(3-(2-(2-(2-hydroxyphenyl)-5,6,6a,7,9,10-hexahydro-8H-pyrazino[1′,2′:4,5]pyrazino[2,3-c]pyridazin-8-yl)ethoxy)isoxazol-5-yl)-3-methylbutanoyl)-N-((S)-1-(4-(4-methyl-1λ^3,3λ^2-thiazol-5-yl)phenyl)ethyl)pyrrolidine-2-carboxamide] | > 7.00 | 100 to 1000 | > 75 | > 7.00 | < 100 | > 75 | –
O=C(/C=C/N1C[C@H]2C[C@@H]1CN2c1ccccn1)c1ccccc1O [PFI-3] | – | – | – | – | – | – | none to minor effects
